# Test results from ChEMBL document CHEMBL5055685, “Discovery of the First Potent IDO1/IDO2 Dual Inhibitors: A Promising Strategy for Cancer Immunotherapy” (J Med Chem, 2021).
# The source made the active and inactive calls. The rule behind the calls is not given here.
# How the values were obtained:
# [1] = molecular target: T1, Indoleamine 2,3-dioxygenase 1 (Homo sapiens, UniProt P14902); experiment: Inhibition of IDO1 (unknown origin) assessed as reduction in kynurenine formation using L-tryptophan as substrate by methylene blue reagent based assay
# Target sequence in this assay (P14902 whole entry): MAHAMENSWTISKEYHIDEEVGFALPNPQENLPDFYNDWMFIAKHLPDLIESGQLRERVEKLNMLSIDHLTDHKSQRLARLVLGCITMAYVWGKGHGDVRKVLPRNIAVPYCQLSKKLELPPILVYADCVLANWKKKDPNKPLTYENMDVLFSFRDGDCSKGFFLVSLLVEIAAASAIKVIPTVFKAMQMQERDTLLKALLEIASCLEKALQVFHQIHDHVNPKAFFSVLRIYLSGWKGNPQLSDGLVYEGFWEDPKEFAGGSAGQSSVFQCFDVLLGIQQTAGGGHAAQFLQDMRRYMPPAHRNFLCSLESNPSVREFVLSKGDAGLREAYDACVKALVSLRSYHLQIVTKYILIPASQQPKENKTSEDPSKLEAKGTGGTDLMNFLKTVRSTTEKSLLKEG
# [2] = molecular target: T2, Indoleamine 2,3-dioxygenase 2 (Homo sapiens, UniProt Q6ZQW0); experiment: Inhibition of IDO2 (unknown origin) assessed as reduction in kynurenine formation using L-tryptophan as substrate by methylene blue reagent based assay
# T2 sequence (Q6ZQW0 whole entry): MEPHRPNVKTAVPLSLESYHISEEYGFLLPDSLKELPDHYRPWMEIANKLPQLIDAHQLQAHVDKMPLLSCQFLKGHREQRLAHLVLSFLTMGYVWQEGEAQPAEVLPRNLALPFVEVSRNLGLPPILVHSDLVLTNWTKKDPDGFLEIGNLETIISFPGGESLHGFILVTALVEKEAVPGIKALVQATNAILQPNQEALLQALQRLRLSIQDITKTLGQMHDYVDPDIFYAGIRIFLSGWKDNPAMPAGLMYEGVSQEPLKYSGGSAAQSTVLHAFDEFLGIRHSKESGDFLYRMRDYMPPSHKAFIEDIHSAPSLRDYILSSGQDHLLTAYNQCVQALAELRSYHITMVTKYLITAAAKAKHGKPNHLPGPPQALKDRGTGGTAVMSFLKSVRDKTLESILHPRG
# [3] = molecular target: T1, Indoleamine 2,3-dioxygenase 1; experiment: Inhibition of IDO1 in IFNgamma-stimulated human HeLa cells assessed as reduction in kynurenine formation measured after 48 hrs by spectrophotometry
# Target sequence in this assay (P14902 whole entry): as the sequence (P14902 whole entry) above
# [4] = molecular target: T1, Indoleamine 2,3-dioxygenase 1; experiment: Inhibition of IDO1 (unknown origin) assessed as reduction in kynurenine formation using L-tryptophan as substrate by methylene blue reagent based assay relative to control; design: concentration or dose not given beside the values; settings: concentration not given here
# Target sequence in this assay (P14902 whole entry, looked up): as the sequence (P14902 whole entry) above
# [5] = molecular target: T3, Indoleamine 2,3-dioxygenase 2 (Homo sapiens) (UniProt Q6ZQW0); experiment: Inhibition of IDO2 (unknown origin) assessed as reduction in kynurenine formation using L-tryptophan as substrate by methylene blue reagent based assay relative to control; design: concentration or dose not given beside the values; settings: concentration not given here
# T3 sequence (whole entry): T2 sequence (Q6ZQW0 whole entry)
# [6] = Efflux ratio of apparent permeability across basolateral to apical over apical to basolateral side in human Caco-2 cells; assay type: ADME, cell-based
# [7] = AUC (0 to t) in Sprague-Dawley rat at 50 mg/kg, po; assay type: ADME, organism-based; design: dose 50 mg/kg, route po; settings: in vivo
# [8] = Protein binding in Sprague-Dawley rat plasma by equilibrium dialysis; assay type: ADME, cell-free; settings: read-out: PPB (converted)
# [9] = Half life in human liver microsomes; assay type: ADME, Microsome
# [10] = Apparent permeability across basolateral to apical side in human Caco-2 cells; assay type: ADME, cell-based
# [11] = Oral bioavailability in Sprague-Dawley rat at 50 mg/kg; assay type: ADME, organism-based; settings: in vivo
# CT26 [12] = experiment: Antitumor activity against mouse CT26 cells implanted in BALB/c mouse assessed as tumor growth inhibition at 50 mg/kg, ip bid for 28 days by vernier caliper method relative to control; assay type: functional; settings: CT26, 672 h, time 28 day, read-out: TGI
# [13] = Metabolic stability in monkey liver microsomes assessed as rate constant; assay type: ADME, Macaca mulatta, Microsome; settings: rhesus monkey
# [14] = Half life in monkey liver microsomes; assay type: ADME, Macaca mulatta, Microsome; settings: rhesus monkey
# [15] = Cmax in Sprague-Dawley rat at 50 mg/kg, po; assay type: ADME, organism-based; design: dose 50 mg/kg, route po; settings: in vivo
# [16] = AUC (0 to infinity) in Sprague-Dawley rat at 50 mg/kg, po; assay type: ADME, organism-based; design: time infinity, dose 50 mg/kg, route po; settings: in vivo
# [17] = Clearance in rat liver microsomes; assay type: ADME, Microsome; settings: read-out: CLH
# HCT-116 = experiment: Cytotoxicity against human HCT-116 cells assessed as reduction in cell viability by CCK8 assay; assay type: functional, cell-based
# Rattus norvegicus [18] = experiment: Toxicity in rat assessed as rat death at […]; assay type: organism-based; settings: in vivo
# [19] = Intrinsic clearance in monkey liver microsomes; assay type: ADME, Macaca mulatta, Microsome; settings: rhesus monkey, read-out: CLH
# [20] = Volume of distribution at steady state in Sprague-Dawley rat at 5 mg/kg, iv; assay type: ADME, organism-based; settings: in vivo, read-out: Vdss
# [21] = Half life in dog liver microsomes assessed as rate constant; assay type: ADME, Canis lupus familiaris, Microsome
# Mus musculus [22] = experiment: Toxicity in BALB/c mouse implanted with mouse CT26 cells assessed as weight loss at 50 mg/kg, ip bid for 28 days; assay type: organism-based; settings: in vivo, 672 h, time 28 day
# [23] = Metabolic stability in dog liver microsomes assessed as rate constant; assay type: ADME, Canis lupus familiaris, Microsome
# CT26 [24] = experiment: Cytotoxicity against mouse CT26 cells assessed as reduction in cell viability by CCK8 assay; assay type: functional, cell-based
# [25] = Apparent permeability across apical to basolateral side in human Caco-2 cells assessed as drug recovery; assay type: ADME, cell-based; settings: read-out: Drug recovery
# HT-29 = experiment: Cytotoxicity against human HT-29 cells assessed as reduction in cell viability by CCK8 assay; assay type: functional, cell-based
# [26] = Clearance in dog liver microsomes; assay type: ADME, Canis lupus familiaris, Microsome; settings: read-out: CLH
# Mus musculus [27] = experiment: Toxicity in BALB/c mouse implanted with mouse CT26 cells assessed as adverse effect at 50 mg/kg, ip bid for 28 days; assay type: organism-based; settings: in vivo, 672 h, time 28 day
# [28] = Protein binding in human plasma by equilibrium dialysis; assay type: ADME, cell-free; settings: read-out: PPB (converted)
# [29] = Clearance in mouse liver microsomes; assay type: ADME, Microsome; settings: read-out: CLH
# [30] = molecular target: Voltage-gated inwardly rectifying potassium channel KCNH2 (Homo sapiens, UniProt Q12809); experiment: Inhibition of human ERG
# HeLa = experiment: Cytotoxicity against human HeLa cells assessed as reduction in cell viability at 1 to 10 uM by CCK8 assay; assay type: functional, cell-based; settings: dose 1-10 µM
# [31] = Protein binding in Beagle dog plasma assessed as fraction unbound by equilibrium dialysis; assay type: ADME, cell-free, Canis lupus familiaris
# [32] = Protein binding in Beagle dog plasma by equilibrium dialysis; assay type: ADME, cell-free, Canis lupus familiaris; settings: read-out: PPB (converted)
# [33] = Tmax in Sprague-Dawley rat at 50 mg/kg, po; assay type: ADME, organism-based; settings: in vivo
# [34] = Intrinsic clearance in human liver microsomes; assay type: ADME, Microsome; settings: read-out: CLH
# [35] = Half life in mouse liver microsomes; assay type: ADME, Microsome
# [36] = Protein binding in human plasma assessed as fraction unbound by equilibrium dialysis; assay type: ADME, cell-free
# [37] = Metabolic stability in human liver microsomes assessed as rate constant; assay type: ADME, Microsome
# PBMC = experiment: Inhibition of IDO1/IDO2 in IFNgamma/LPS-stimulated human PBMCs assessed as reduction in kynurenine formation at 0.0001 to 10 uM pretreated with compound for 15 mins followed by IFNgamma/LPS stimulation by LC-MS/MS analysis; assay type: tissue-based; settings: dose 0.0001-10 µM
# Rattus norvegicus [38] = experiment: Toxicity in rat assessed as weight loss at […]; assay type: organism-based; settings: in vivo
# [39] = Toxicity in rat assessed as maximum tolerated dose; assay type: organism-based; settings: in vivo
# [40] = Half life in rat liver microsomes; assay type: ADME, Microsome
# [41] = Apparent permeability across apical to basolateral side in human Caco-2 cells; assay type: ADME, cell-based
# [42] = Protein binding in ICR mouse plasma by equilibrium dialysis; assay type: ADME, cell-free; settings: read-out: PPB (converted)
# [43] = AUC (0 to infinity) in Sprague-Dawley rat at 5 mg/kg, iv; assay type: ADME, organism-based; design: time infinity, dose 5 mg/kg, route iv; settings: in vivo
# [44] = AUC (0 to t) in Sprague-Dawley rat at 5 mg/kg, iv; assay type: ADME, organism-based; design: dose 5 mg/kg, route iv; settings: in vivo
# [45] = Metabolic stability in rat liver microsomes assessed as rate constant; assay type: ADME, Microsome
# [46] = Protein binding in ICR mouse plasma assessed as fraction unbound by equilibrium dialysis; assay type: ADME, cell-free
# [47] = Apparent permeability across basolateral to apical side in human Caco-2 cells assessed as drug recovery; assay type: ADME, cell-based; settings: read-out: Drug recovery
# [48] = Protein binding in monkey plasma by equilibrium dialysis by equilibrium dialysis; assay type: ADME, cell-free, Macaca mulatta; settings: rhesus monkey, read-out: PPB (converted)
# [49] = Half life in Sprague-Dawley rat at 5 mg/kg, iv; assay type: ADME, organism-based; settings: in vivo
# [50] = Protein binding in Sprague-Dawley rat plasma assessed as fraction unbound by equilibrium dialysis; assay type: ADME, cell-free
# [51] = Protein binding in monkey plasma assessed as fraction unbound by equilibrium dialysis; assay type: ADME, cell-free, Macaca mulatta; settings: rhesus monkey
# [52] = Half life in Sprague-Dawley rat at 50 mg/kg, po; assay type: ADME, organism-based; settings: in vivo
# [53] = Metabolic stability in mouse liver microsomes assessed as rate constant; assay type: ADME, Microsome
# Sequence of Voltage-gated inwardly rectifying potassium channel KCNH2 (Q12809 whole entry): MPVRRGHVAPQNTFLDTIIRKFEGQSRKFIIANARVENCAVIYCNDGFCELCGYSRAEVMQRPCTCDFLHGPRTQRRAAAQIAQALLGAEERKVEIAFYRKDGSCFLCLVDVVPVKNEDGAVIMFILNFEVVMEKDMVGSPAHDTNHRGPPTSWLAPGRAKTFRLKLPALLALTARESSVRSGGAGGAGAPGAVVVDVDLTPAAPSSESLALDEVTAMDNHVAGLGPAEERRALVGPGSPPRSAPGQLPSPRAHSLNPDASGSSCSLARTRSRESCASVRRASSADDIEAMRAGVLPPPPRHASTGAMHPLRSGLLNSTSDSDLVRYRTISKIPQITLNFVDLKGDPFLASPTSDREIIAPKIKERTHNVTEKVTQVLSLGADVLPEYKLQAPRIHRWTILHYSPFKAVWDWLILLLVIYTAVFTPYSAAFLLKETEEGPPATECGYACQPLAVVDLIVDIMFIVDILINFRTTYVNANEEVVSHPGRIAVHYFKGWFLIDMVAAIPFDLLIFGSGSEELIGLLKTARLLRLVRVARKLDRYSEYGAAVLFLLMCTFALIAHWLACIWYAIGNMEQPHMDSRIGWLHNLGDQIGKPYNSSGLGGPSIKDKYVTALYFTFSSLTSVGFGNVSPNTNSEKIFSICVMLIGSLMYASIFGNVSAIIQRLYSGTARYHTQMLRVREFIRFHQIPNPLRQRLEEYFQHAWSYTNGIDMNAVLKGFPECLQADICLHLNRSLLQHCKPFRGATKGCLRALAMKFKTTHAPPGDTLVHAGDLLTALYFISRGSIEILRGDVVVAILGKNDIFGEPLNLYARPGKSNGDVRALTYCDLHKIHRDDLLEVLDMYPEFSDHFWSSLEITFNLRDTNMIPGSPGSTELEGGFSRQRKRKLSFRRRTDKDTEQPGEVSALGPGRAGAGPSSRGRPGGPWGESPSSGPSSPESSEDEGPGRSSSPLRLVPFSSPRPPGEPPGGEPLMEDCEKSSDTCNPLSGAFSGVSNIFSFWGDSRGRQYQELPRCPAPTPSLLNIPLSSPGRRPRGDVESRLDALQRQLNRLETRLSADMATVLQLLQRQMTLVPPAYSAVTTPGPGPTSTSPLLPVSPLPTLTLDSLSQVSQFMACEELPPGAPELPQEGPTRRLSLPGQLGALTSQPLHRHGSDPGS
smiles,measurement,setting,value
OCc1cn(CCNc2nonc2/C(=N/O)Nc2ccc(F)c(Br)c2)nn1,IC50,[1],77 nM
same,IC50,[2],794 nM
CCOc1cc(CNC(=O)c2ncoc2-c2ccc(OC)cc2)cc(OCC)c1OCC,IC50,[3],6.3 nM
COCc1cn(CCNc2nonc2/C(=N/O)Nc2ccc(F)c(Br)c2)nn1,inhibition,[4],20.5%
same,inhibition,[5],7%
CC(O)c1cn(CCNc2nonc2/C(=N/O)Nc2ccc(F)c(Br)c2)nn1 (stereo not drawn),efflux ratio,[6],5.9
same,AUC(0-t),[7],11300 ng·h/mL
same,fraction unbound,[8],0.04
same,half-life,[9],272 min
same,Papp B→A,[10],80.9 ×10⁻⁶ cm/s
same,bioavailability,[11],20.4%
same,inhibition in vivo at 50 mg/kg,CT26 [12],66.3%
same,k el,[13],0.000168 s⁻¹
same,half-life,[14],68.8 min
same,Cmax,[15],2730 ng/mL
same,AUC(0-inf),[16],11500 ng·h/mL
same,microsomal CLint,[17],64.2 µL/min/mg
same,IC50,HCT-116,23700 nM
same,Activity,Rattus norvegicus [18],Non-Toxic
same,microsomal CLint,[19],20.2 µL/min/mg
same,Vd,[20],1.2 L/kg
same,half-life,[21],5.31 min
same,Activity,Mus musculus [22],Non-Toxic
same,k el,[23],0.00218 s⁻¹
same,IC50,CT26 [24],27500 nM
same,recovery,[25],95.5%
same,IC50,HT-29,46000 nM
same,IC50,[1],53 nM
same,microsomal CLint,[26],261 µL/min/mg
same,Activity,Mus musculus [27],Non-Toxic
same,fraction unbound,[28],0.0192
same,microsomal CLint,[29],33.6 µL/min/mg
same,IC50,[30],> 30000 nM
same,Activity,HeLa,Active
same,fraction unbound,[31],0.0239
same,fraction unbound,[32],0.0239
same,Tmax,[33],25.2 min
same,microsomal CLint,[34],5.22 µL/min/mg
same,IC50,[2],362 nM
same,half-life,[35],41.2 min
same,fraction unbound,[36],0.0192
same,k el,[37],4.35e-05 s⁻¹
same,inhibition,PBMC,Active
same,Activity,Rattus norvegicus [38],Non-Toxic
same,MTD,[39],2 mg/kg
same,half-life,[40],21.6 min
same,Papp A→B,[41],13.8 ×10⁻⁶ cm/s
same,fraction unbound,[42],0.0584
same,AUC,[43],5670 ng·h/mL
same,AUC(0-t),[44],5590 ng·h/mL
same,k el,[45],0.00218 s⁻¹
same,fraction unbound,[46],0.0584
same,recovery,[47],116%
same,fraction unbound,[48],0.0371
same,half-life,[49],48 min
same,fraction unbound,[50],0.044
same,fraction unbound,[51],0.0371
same,half-life,[52],78 min
same,K,[53],0.0168 min⁻¹
O/N=C(\Nc1ccc(F)c(Br)c1)c1nonc1NCCn1cc(C2(O)CCCCC2)nn1,IC50,[1],62 nM
same,IC50,[2],865 nM
Cc1ccc(-c2cn(CCNc3nonc3/C(=N/O)Nc3ccc(F)c(Br)c3)nn2)cc1,inhibition,[4],12%
same,inhibition,[5],14%
